The format of series [1] is physicochemical. An excerpt: In one embodiment, the liquid phase of the slurry comprises water and up to 25%, for example between 15% and 23%, of ethanol. This ethanol will pre-dissolve a very small portion of the antimicrobial agents from the particles, giving the injected slurry a small but almost instantaneous punch.
The conditions of series [2]: pH in the fermenters; cited from earlier work.
For the next series, the system named is L. plantarum. Briefly: development of resistance test, 10 week duration. Particulars: 10 week duration of the test. The format is cell-based. An excerpt:
One very effective control program involves the introduction of pristinamycin-type antimicrobial agents, and particularly virginiamycin, to the process. […] Usually, the “waste” byproduct, known as “Dried Distillers Grains with solubles (DDGS), is sold as animal feed, going 45% to dairy, 35% to beef, 15% to swine, and 5% to poultry industries. This is an important factor in the profitability of an ethanol production process, and the total amount of this byproduct produced per year is on the order of 3.5 million metric tons per year. The presence of residual antimicrobial agents in this material can adversely affect the value of this byproduct, as small residual amounts of antimicrobial agents in feed will promote the development of agent-resistant microorganisms. We have tested DDG samples from 8 major ethanol producers using virginiamycin to control microorganisms and found no detectable amount of virginiamycin in the DDG (<1 ppm via the validated Eurofins analysis and <1 ppb via an unvalidated experimental analytical procedure). […] Generally, however, the virginiamycin in mash is destroyed by drying so virginiamycin must be re-added to the feed if so desired. Other effective control programs employ polyether ionophore antimicrobial agents, which provide many of the benefits obtained with pristinamycin-type antimicrobial agents. […]

A short description of series [3]: dissolution of 0.1 gram powder in 4 liters of stirred water. The format is physicochemical. Particulars: 5.2 to 10 micron average particle size, 0.1 gram in 4 liters water, continuously stirred. From the text:
The over-riding factor in controlling pests such as lactobacilli, however, is the rate of dissolution of small granular pristinamycin-type antimicrobial agents and polyether ionophore-type antimicrobial agents in water or mash. A 0.1 gram sample of a 5.2 to 10 micron average particle size virginiamycin was placed in a beaker with 4 liters of water, and the composition was continuously and vigorously stirred (providing very good mixing and turbulence). The presence of undissolved crystals was very evident. […] Such slow dissolution will reduce effectiveness of pulse treatments as it takes a long time for the added agents to become solubilized and effective, and will reduce the highest concentration of added agents resulting from a pulsed addition as some of the agent may be removed from the fermentator or other tank before the maximum amount of added agent is solubilized, and because some added agent may not dissolve at all. The solubility of monensin, virginiamycin, and similar pristinamycin-type antimicrobial agents and polyether ionophore-type antimicrobial agents in water is very low. Much more important, however, is the rate of dissolution of small granular pristinamycin-type antimicrobial agents and polyether ionophore-type antimicrobial agents in water. […]

Series [4] can be described thus: stability in water (hydrolysis). The format is physicochemical. As to the method:
In another embodiment at least a portion of said antimicrobial agent is added to the mash as a composition comprising particles comprising said substantially water insoluble antimicrobial agent(s), said composition being in the form of a slurry. In another embodiment at least a portion of said antimicrobial agent is added to the mash as a composition comprising particles comprising said substantially water insoluble antimicrobial agent(s) and having a weight mean average diameter of between 0.1 and 2 microns, said composition being in the form of a slurry. Many of the preferred antimicrobial agents have a slight instability when dissolved in water, which can be significant over long storage periods. […] Coating particles with protectorants will reduce stability problems. Placing the slurry in a […] substantially water-free material, be it fatty acids, surfactants, dispersants, solvents in which the antimicrobial agents have minimal solubility (called an “oil flowable slurry”), or any combination of the above can reduce loss of antimicrobial agent. […] An oil-flowable slurry can be readily prepared by milling the antimicrobial agents as described herein, but where the solvent replaces the water in the milling process. […]

For series [5] the following is noted: cited from earlier work.

Turning to `CC[C@@]1([C@@H]2O[C@@H]([C@H]3O[C@@](O)(CO)[C@H](C)C[C@@H]3C)C[C@@H]2C)CC[C@H]([C@]2(C)CC[C@]3(C[C@H](O)[C@@H](C)[C@@H]([C@@H](C)[C@@H](OC)[C@H](C)C(=O)O)O3)O2)O1` [monensin], the solubility in water/ethanol result in series [1] was “high solubility”.
As for `[H]/N=C(/N)N[C@H]1[C@H](O)[C@@H](O)[C@H](O[C@@H]2O[C@@H](C)[C@](O)(C=O)[C@H]2O[C@@H]2O[C@@H](CO)[C@H](O)[C@@H](O)[C@@H]2NC)[C@@H](N/C(N)=N\[H])[C@@H]1O` [streptomycin], the “inactivation at fermenter pH” value in series [2] is “partially inactivated”.
penicillin: in series [2], the “inactivation at fermenter pH” value is reported as “partially inactivated”.
On to virginiamycin, for which, in the series on L. plantarum, the “time for L. plantarum to develop resistance” value is “no development of resistance”. The “time before only a few crystals remained visible” value in series [3] is “on the order of an hour”. Besides, in series [1], the solubility in water/ethanol entry is on record as “high solubility”. The “stability when in water” value in series [4] is recorded as “slow hydrolysis”. Further, the solubility in water in series [5] is listed as 0.0001 grams/l.

Values taken from US20080003660A1, “Use of fast-release pristinamycin-type and polyether ionophore type antimicrobial agents in the production of ethanol” (priority 2006, published 2008).
